Source: US10597388B2, “Pyridazinone herbicides” (FMC CORPORATION, priority 2014, dated 2020)

Key:
Assay in all cases: Test C greenhouse herbicide test, pre- and postemergence
Type in all cases: in vivo
[1] = system: ryegrass, Italian (Italian ryegrass, Lolium multiflorum)
How it was run: (§1)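 Greenhouse pots; pre-em on seeded loam:sand blend, post-em on 2–18 cm plants (1–4 leaf) in sphagnum peat/vermiculite medium. Formulation: non-phytotoxic solvent + surfactant. Read-out: visual % control (0–100) vs controls at 13–15 d.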

[2] = system: foxtail, giant (giant foxtail, Setaria faberii)
How it was run: as §1

[3] = system: velvetleaf (Abutilon theophrasti)
How it was run: as §1

[4] = system: nutsedge, yellow (yellow nutsedge, Cyperus esculentus)
How it was run: as §1

[5] = system: morningglory (Ipomoea coccinea)
How it was run: as §1

[6] = system: barnyardgrass (Echinochloa crus-galli)
How it was run: as §1

[7] = system: soybean (Glycine max)
How it was run: as §1

[8] = system: wheat (winter wheat, Triticum aestivum)
How it was run: as §1

[9] = system: waterhemp (common waterhemp, Amaranthus rudis)
How it was run: as §1

[10] = system: corn (Zea mays)
How it was run: as §1

[11] = system: pigweed (Amaranthus retroflexus)
How it was run: as §1

[12] = system: blackgrass (Alopecurus myosuroides)
How it was run: as §1

[13] = system: lambsquarters (Chenopodium album)
How it was run: as §1

[14] = system: johnsongrass (Sorghum halepense)
How it was run: as §1

[15] = system: galium (catchweed bedstraw, Galium aparine)
How it was run: as §1

[16] = system: ragweed (common ragweed, Ambrosia elatior)
How it was run: as §1

[17] = Postemergence, 31 g ai/ha, scale 0 to 100 (0 no effect, 100 complete control)
[18] = Postemergence, 62 g ai/ha, 0 to 100 scale (0 no effect, 100 complete control)
[19] = Postemergence, 250 g ai/ha, scale 0 to 100, 0 no effect, 100 complete control, 13 to 15 d
[20] = Preemergence, 31 g ai/ha, scale 0 to 100, 0 is no effect, 100 is complete control
[21] = Preemergence, 62 g ai/ha, scale 0 to 100, 0 is no effect, 100 is complete control
[22] = Preemergence, 125 g ai/ha, scale 0 to 100, 0 is no effect, 100 is complete control
[23] = Preemergence, 250 g ai/ha, scale 0 to 100 (0 no effect, 100 complete control)
[24] = postemergence, 125 g ai/ha, scale 0 to 100, 0 no effect, 100 complete control

With CC(=O)Oc1c(C)nn(C)c(=O)c1-c1c(C)cc(C)c2ccccc12 [Compound 153] the “Plant response rating, Ryegrass, Italian” value [1, 17] was 90, the “Ryegrass, Italian plant response rating” value [1, 18] was 95 and the “Plant response rating, Ryegrass, Italian” value [1, 19] was 95. The “Plant response rating, Ryegrass, Italian” value [1, 20] was 90, the “Plant response rating, Ryegrass, Italian” value [1, 21] was 95 and the “Plant response rating, Ryegrass, Italian” value [1, 22] was 90. For the same compound, the “Ryegrass, Italian plant response rating” value [1, 23] was 95, the “Ryegrass, Italian plant response rating” value [1, 24] was 95 and the “Plant response rating, Foxtail, Giant” value [2, 17] was 80. For the same compound, the “Foxtail, Giant plant response rating” value [2, 18] was 85, the “Plant response rating, Foxtail, Giant” value [2, 19] was 95 and the “Plant response rating, Foxtail, Giant” value [2, 20] was 98. For the same compound, the “Plant response rating, Foxtail, Giant” value [2, 21] was 100, the “Plant response rating, Foxtail, Giant” value [2, 22] was 100 and the “Foxtail, Giant plant response rating” value [2, 23] was 100. The “Foxtail, Giant plant response rating” value [2, 24] was 90, the “Plant response rating, Velvetleaf” value [3, 17] was 85 and the “Velvetleaf plant response rating” value [3, 18] was 85. For the same compound, the “Plant response rating, Velvetleaf” value [3, 19] was 95, the “Plant response rating, Velvetleaf” value [3, 20] was 85 and the “Plant response rating, Velvetleaf” value [3, 21] was 90. The “Plant response rating, Velvetleaf” value [3, 22] was 95, the “Velvetleaf plant response rating” value [3, 23] was 90 and the “Velvetleaf plant response rating” value [3, 24] was 90. The “Plant response rating, Nutsedge, Yellow” value [4, 17] was 85, the “Nutsedge, Yellow plant response rating” value [4, 18] was 90 and the “Plant response rating, Nutsedge, Yellow” value [4, 19] was 90. For the same compound, the “Plant response rating, Nutsedge, Yellow” value [4, 20] was 80, the “Plant response rating, Nutsedge, Yellow” value [4, 21] was 85 and the “Plant response rating, Nutsedge, Yellow” value [4, 22] was 80. For the same compound, the “Nutsedge, Yellow plant response rating” value [4, 23] was 95, the “Nutsedge, Yellow plant response rating” value [4, 24] was 95 and the “Plant response rating, Morningglory” value [5, 17] was 98. The “Morningglory plant response rating” value [5, 18] was 100, the “Plant response rating, Morningglory” value [5, 19] was 100 and the “Plant response rating, Morningglory” value [5, 20] was 95. For the same compound, the “Plant response rating, Morningglory” value [5, 21] was 90, the “Plant response rating, Morningglory” value [5, 22] was 98 and the “Morningglory plant response rating” value [5, 23] was 98. The “Morningglory plant response rating” value [5, 24] was 98, the “Plant response rating, Barnyardgrass” value [6, 17] was 40 and the “Barnyardgrass plant response rating” value [6, 18] was 60. The “Plant response rating, Barnyardgrass” value ([6]; Postemergence, 125 g ai/ha, scale 0 to 100, 0 is no effect, 100 is complete control) was 70, the “Plant response rating, Barnyardgrass” value [6, 19] was 90 and the “Plant response rating, Barnyardgrass” value [6, 20] was 85. For the same compound, the “Plant response rating, Barnyardgrass” value [6, 21] was 100, the “Plant response rating, Barnyardgrass” value [6, 22] was 100 and the “Barnyardgrass plant response rating” value [6, 23] was 100. The “Plant response rating, Soybean” value [7, 17] was 5, the “Soybean plant response rating” value [7, 18] was 10 and the “Plant response rating, Soybean” value [7, 19] was 5. For the same compound, the “Plant response rating, Soybean” value [7, 20] was 20, the “Plant response rating, Soybean” value [7, 21] was 10 and the “Plant response rating, Soybean” value [7, 22] was 20. For the same compound, the “Soybean plant response rating” value [7, 23] was 45, the “Soybean plant response rating” value [7, 24] was 10 and the “Plant response rating, Wheat” value [8, 17] was 15. For the same compound, the “Wheat plant response rating” value [8, 18] was 20, the “Plant response rating, Wheat” value [8, 19] was 10 and the “Plant response rating, Wheat” value [8, 20] was 0. For the same compound, the “Plant response rating, Wheat” value [8, 21] was 10, the “Plant response rating, Wheat” value [8, 22] was 30 and the “Wheat plant response rating” value [8, 23] was 50. The “Wheat plant response rating” value [8, 24] was 10, the “Plant response rating, Waterhemp” value [9, 17] was 70 and the “Waterhemp plant response rating” value [9, 18] was 65. The “Plant response rating, Waterhemp” value [9, 19] was 90, the “Plant response rating, Waterhemp” value [9, 20] was 80 and the “Plant response rating, Waterhemp” value [9, 21] was 95. For the same compound, the “Plant response rating, Waterhemp” value [9, 22] was 95, the “Waterhemp plant response rating” value [9, 23] was 100 and the “Waterhemp plant response rating” value [9, 24] was 90. For the same compound, the “Plant response rating, Corn” value [10, 17] was 20, the “Corn plant response rating” value [10, 18] was 35 and the “Plant response rating, Corn” value [10, 19] was 10. For the same compound, the “Plant response rating, Corn” value [10, 20] was 0, the “Plant response rating, Corn” value [10, 21] was 0 and the “Plant response rating, Corn” value [10, 22] was 40. For the same compound, the “Corn plant response rating” value [10, 23] was 65, the “Corn plant response rating” value [10, 24] was 25 and the “Plant response rating, Pigweed” value [11, 17] was 85. For the same compound, the “Pigweed plant response rating” value [11, 18] was 75, the “Plant response rating, Pigweed” value [11, 19] was 85 and the “Plant response rating, Pigweed” value [11, 20] was 100. For the same compound, the “Plant response rating, Pigweed” value [11, 21] was 100, the “Plant response rating, Pigweed” value [11, 22] was 100 and the “Pigweed plant response rating” value [11, 23] was 100. The “Pigweed plant response rating” value [11, 24] was 85, the “Plant response rating, Blackgrass” value [12, 17] was 80 and the “Blackgrass plant response rating” value [12, 18] was 85. The “Plant response rating, Blackgrass” value [12, 19] was 90, the “Plant response rating, Blackgrass” value [12, 20] was 90 and the “Plant response rating, Blackgrass” value [12, 21] was 90. For the same compound, the “Plant response rating, Blackgrass” value [12, 22] was 95, the “Blackgrass plant response rating” value [12, 23] was 95 and the “Blackgrass plant response rating” value [12, 24] was 90. For the same compound, the “Plant response rating, Lambsquarters” value [13, 17] was 85, the “Lambsquarters plant response rating” value [13, 18] was 90 and the “Plant response rating, Lambsquarters” value [13, 19] was 95. For the same compound, the “Plant response rating, Lambsquarters” value [13, 20] was 95, the “Plant response rating, Lambsquarters” value [13, 21] was 100 and the “Plant response rating, Lambsquarters” value [13, 22] was 100. For the same compound, the “Lambsquarters plant response rating” value [13, 23] was 98, the “Lambsquarters plant response rating” value [13, 24] was 95 and the “Plant response rating, Johnsongrass” value [14, 17] was 10. The “Johnsongrass plant response rating” value [14, 18] was 5, the “Plant response rating, Johnsongrass” value [14, 19] was 15 and the “Plant response rating, Johnsongrass” value [14, 20] was 25. For the same compound, the “Plant response rating, Johnsongrass” value [14, 21] was 50, the “Plant response rating, Johnsongrass” value [14, 22] was 65 and the “Johnsongrass plant response rating” value [14, 23] was 70. The “Johnsongrass plant response rating” value [14, 24] was 10, the “Plant response rating, Galium” value [15, 17] was 95 and the “Galium plant response rating” value [15, 18] was 95. For the same compound, the “Plant response rating, Galium” value [15, 19] was 98, the “Plant response rating, Galium” value [15, 20] was 95 and the “Plant response rating, Galium” value [15, 21] was 98. The “Plant response rating, Galium” value [15, 22] was 100, the “Galium plant response rating” value [15, 23] was 100 and the “Galium plant response rating” value [15, 24] was 98. The “Plant response rating, Ragweed” value [16, 17] was 70, the “Ragweed plant response rating” value [16, 18] was 90 and the “Plant response rating, Ragweed” value [16, 19] was 90. The “Plant response rating, Ragweed” value [16, 20] was 95, the “Plant response rating, Ragweed” value [16, 21] was 95 and the “Plant response rating, Ragweed” value [16, 22] was 98. The “Ragweed plant response rating” value [16, 23] was 100 and the “Ragweed plant response rating” value [16, 24] was 95.
